# Patent US20140141503A1, “CELL CULTURE SUBSTRATE HAVING UNIFORM SURFACE COATING” (Corning Incorporated, priority 2012, published 2014)
# Test: Compound extraction (loss) from PBS buffer by PDMS coating, UV-VIS at 260 nm
# Type: physicochemical
# Details: 200 μL of 200 μM Nefazodone-PBS, 24 hours, less than 0.8 mg of PDMS in 200 μL PBS (volume ratio PDMS to buffer less than 1/250)
# Protocol: Nefazodone is a small hydrophobic compound that can be readily extracted from aqueous buffer by PDMS following a partition function rule, which means the loss of Nefazodone […] with the amount of PDMS present in a given volume of buffer. In order to determine the safe quantity of PDMS for use with 200 μL of PBS buffer, 200 μL of a 200 μM Nefazodone-PBS solution was incubated in wells (formed generally as described above in EXAMPLE 4) containing varying PDMS coating amounts from 0.005 mg to 4 mg per well for 24 hours. After 24 hours the Nefazodone that remained in the PBS buffer was measured by UV-VIS adsorption at 260 nm. The results shown in FIG. 11 indicate that the loss of Nefazodone is negligible in the presence of less than 0.8 mg of PDMS in 200 μL of PBS buffer (meaning volume ratio of PDMS to buffer is less than 1/250).
smiles,measurement,value
CCc1nn(CCCN2CCN(c3cccc(Cl)c3)CC2)c(=O)n1CCOc1ccccc1 [Nefazodone],loss of Nefazodone from PBS buffer,negligible
